Columns and labels:
MV4-11 = test: cells; conditions: Homo sapiens, MV4-11, 72 h
Description: Antiproliferative activity against human MV4-11 cells harboring FLT3-ITD mutant measured after 72 hrs by MTT assay

BaF3 [1] = test: cells; conditions: Mus musculus, BaF3, 72 h
Description: Antiproliferative activity against mouse BAF3 cells harboring FLT3-ITD-F691L mutant measured after 72 hrs by MTT assay

BaF3 [2] = test: cells; conditions: Mus musculus, BaF3, 72 h; remark: listed apart in the source
Description: Antiproliferative activity against mouse BAF3 cells harboring FLT3-ITD mutant measured after 72 hrs by MTT assay

RS4-11 = test: Antiproliferative activity against human RS4:11 cells harboring wild-type FLT3 measured after 72 hrs by MTT assay; type: functional, cell-based; conditions: RS4-11, 72 h
HL-60 = test: Antiproliferative activity against human HL60 cells harboring wild-type FLT3 measured after 72 hrs by MTT assay; type: functional, cell-based; conditions: HL-60, 72 h
MOLM-13 = test: cells; conditions: Homo sapiens, MOLM-13, 72 h
Description: Antiproliferative activity against human MOLM13 cells harboring FLT3-ITD mutant measured after 72 hrs by MTT assay

BaF3 [3] = test: cells; conditions: Mus musculus, BaF3, 72 h; remark: listed apart in the source
Description: Antiproliferative activity against mouse BAF3 cells harboring FLT3-ITD-D835V mutant measured after 72 hrs by MTT assay

[4] = biological target: T1, Receptor-type tyrosine-protein kinase FLT3 (Homo sapiens, UniProt P36888)
T1 sequence (P36888 whole entry): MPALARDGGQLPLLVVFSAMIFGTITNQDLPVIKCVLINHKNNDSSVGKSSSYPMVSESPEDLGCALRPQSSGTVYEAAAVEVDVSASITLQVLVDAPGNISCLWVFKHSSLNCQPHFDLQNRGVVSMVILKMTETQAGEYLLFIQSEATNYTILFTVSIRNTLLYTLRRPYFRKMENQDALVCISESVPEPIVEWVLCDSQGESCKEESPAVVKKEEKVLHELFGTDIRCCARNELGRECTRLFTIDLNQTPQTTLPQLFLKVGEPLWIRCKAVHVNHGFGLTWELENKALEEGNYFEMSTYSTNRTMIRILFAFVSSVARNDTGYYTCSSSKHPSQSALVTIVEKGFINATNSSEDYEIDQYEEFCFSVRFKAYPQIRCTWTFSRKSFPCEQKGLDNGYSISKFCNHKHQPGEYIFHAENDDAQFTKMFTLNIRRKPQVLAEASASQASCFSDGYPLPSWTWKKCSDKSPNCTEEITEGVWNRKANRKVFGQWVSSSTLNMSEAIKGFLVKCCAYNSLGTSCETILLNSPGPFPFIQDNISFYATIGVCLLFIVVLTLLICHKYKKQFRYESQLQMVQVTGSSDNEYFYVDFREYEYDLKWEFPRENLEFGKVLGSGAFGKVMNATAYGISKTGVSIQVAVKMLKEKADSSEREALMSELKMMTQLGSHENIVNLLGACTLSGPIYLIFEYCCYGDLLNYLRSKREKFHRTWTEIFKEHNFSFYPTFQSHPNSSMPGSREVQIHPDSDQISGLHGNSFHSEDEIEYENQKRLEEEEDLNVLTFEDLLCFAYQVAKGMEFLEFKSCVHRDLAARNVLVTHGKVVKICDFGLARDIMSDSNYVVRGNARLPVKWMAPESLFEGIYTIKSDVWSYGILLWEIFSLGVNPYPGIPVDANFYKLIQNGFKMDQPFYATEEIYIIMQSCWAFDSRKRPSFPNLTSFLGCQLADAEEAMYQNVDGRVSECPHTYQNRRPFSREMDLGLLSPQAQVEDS

SMILES	IC50 (MV4-11) [nM]	IC50 (BaF3 [1]) [nM]	IC50 (BaF3 [2]) [nM]	IC50 (RS4-11) [nM]	IC50 (HL-60) [nM]	IC50 (MOLM-13) [nM]	IC50 (BaF3 [3]) [nM]	IC50 [4] [nM]
CN(C)CCn1cc(-c2ccc(NC(=O)Nc3cc(C(C)(C)C)on3)cc2)c2c(N)ncnc21	0.152	85	1.62	> 1000	> 1000	0.134	170	17
CC(C)=CCn1cc(-c2ccc(NC(=O)Nc3cc(C(C)(C)C)on3)cc2)c2c(N)ncnc21	10.3	216	8.67	> 1000	> 1000	2.77	305	113
CC(C)(C)c1cc(NC(=O)Nc2ccc(-c3cn(Cc4ccccc4)c4ncnc(N)c34)cc2)no1	1.76	134	8.45	> 1000	> 1000	2.5	95.4	86
C#CCn1cc(-c2ccc(NC(=O)Nc3cc(C(C)(C)C)on3)c(F)c2)c2c(N)ncnc21	0.434	16.1	2.48	> 1000	> 1000	0.389	102	46
CC(C)(C)c1cc(NC(=O)Nc2ccc(-c3cn(C4CCCC4)c4ncnc(N)c34)cc2)no1	2.16	90.9	7.25	> 1000	> 1000	1.51	36.8	32
COCCn1cc(-c2ccc(NC(=O)Nc3cc(C(C)(C)C)on3)cc2)c2c(N)ncnc21	0.149	28.6	0.95	> 1000	> 1000	0.049	50.1	21
CC(C)(C)OC(=O)N1CCN(CCn2cc(-c3ccc(NC(=O)Nc4cc(C(C)(C)C)on4)cc3)c3c(N)ncnc32)CC1	2.54	> 500	8.95	> 1000	> 1000	4.43	385	–
CCOCCn1cc(-c2ccc(NC(=O)Nc3cc(C(C)(C)C)on3)c(F)c2)c2c(N)ncnc21	1.34	42.7	4.6	> 1000	> 1000	1.55	55.4	49
C=CCn1cc(-c2ccc(NC(=O)Nc3cc(C(C)(C)C)on3)c(F)c2)c2c(N)ncnc21	2.34	82.4	3.04	> 1000	> 1000	0.65	51.9	17
C=CCCCCn1cc(-c2ccc(NC(=O)Nc3cc(C(C)(C)C)on3)cc2)c2c(N)ncnc21	1.79	228	6.06	> 1000	> 1000	2.85	185	70
CC(C)(C)c1cc(NC(=O)Nc2ccc(-c3cn(CC#N)c4ncnc(N)c34)cc2F)no1	0.422	9.84	1.27	> 1000	> 1000	0.73	86.7	19
CCOCCn1cc(-c2ccc(NC(=O)Nc3cc(C(C)(C)C)on3)cc2)c2c(N)ncnc21	1.47	98.6	3.21	> 1000	> 1000	0.117	173	37
CCN(CC)C(=O)n1cc(-c2ccc(NC(=O)Nc3cc(C(C)(C)C)on3)cc2)c2c(N)ncnc21	1.73	28.2	3.1	> 1000	> 1000	1.95	28.5	31
CCn1cc(-c2ccc(NC(=O)Nc3cc(C(C)(C)C)on3)cc2)c2c(N)ncnc21	0.476	28.5	0.92	> 1000	> 1000	0.144	23.1	7
Cn1cc(-c2ccc(NC(=O)Nc3cc(C(C)(C)C)on3)cc2)c2c(N)ncnc21	0.311	27.9	1.44	> 1000	> 1000	0.014	46.2	7

Further lines, results first:

IC50 (MV4-11) [nM]	IC50 (BaF3 [1]) [nM]	IC50 (BaF3 [2]) [nM]	IC50 (RS4-11) [nM]	IC50 (HL-60) [nM]	IC50 (MOLM-13) [nM]	IC50 (BaF3 [3]) [nM]	IC50 [4] [nM]	SMILES
5.13	253	20.7	> 1000	> 1000	3.77	187	105	CCCCCCn1cc(-c2ccc(NC(=O)Nc3cc(C(C)(C)C)on3)cc2)c2c(N)ncnc21
2.21	31.5	4.26	> 1000	> 1000	2.33	112	22	CC(C)(C)c1cc(NC(=O)Nc2ccc(-c3cn(CCC#N)c4ncnc(N)c34)cc2F)no1
2.18	209	5.69	> 1000	> 1000	1.43	112	34	CCCCn1cc(-c2ccc(NC(=O)Nc3cc(C(C)(C)C)on3)cc2)c2c(N)ncnc21
3.92	51.2	6.18	> 1000	> 1000	1.15	86.4	26	CC#CCn1cc(-c2ccc(NC(=O)Nc3cc(C(C)(C)C)on3)cc2)c2c(N)ncnc21
14.2	86	3.59	> 1000	> 1000	10.6	166	26	CC(C)(C)c1cc(NC(=O)Nc2ccc(-c3cn(CCN4CCN(S(C)(=O)=O)CC4)c4ncnc(N)c34)cc2)no1
1.98	39.4	5.57	> 1000	> 1000	0.58	69.7	32	COCCn1cc(-c2ccc(NC(=O)Nc3cc(C(C)(C)C)on3)c(F)c2)c2c(N)ncnc21
5.84	148	8.65	> 1000	> 1000	2.05	361	64	CCC#CCn1cc(-c2ccc(NC(=O)Nc3cc(C(C)(C)C)on3)cc2)c2c(N)ncnc21
0.376	19.6	1.6	> 1000	> 1000	0.52	24.6	6	CC(C)(C)c1cc(NC(=O)Nc2ccc(-c3cn(CCC#N)c4ncnc(N)c34)cc2)no1
0.107	8.92	1.28	> 1000	> 1000	0.081	12.4	25	CC(C)(C)OC(=O)n1cc(-c2ccc(NC(=O)Nc3cc(C(C)(C)C)on3)cc2)c2c(N)ncnc21
1.75	57.8	5.09	> 1000	> 1000	1.02	93.7	30	C=C(C)Cn1cc(-c2ccc(NC(=O)Nc3cc(C(C)(C)C)on3)cc2)c2c(N)ncnc21
1.75	91.8	4.92	> 1000	> 1000	1.06	176	38	C=CCCn1cc(-c2ccc(NC(=O)Nc3cc(C(C)(C)C)on3)cc2)c2c(N)ncnc21
0.403	72.1	2.72	> 1000	> 1000	0.736	41.5	15	CCCn1cc(-c2ccc(NC(=O)Nc3cc(C(C)(C)C)on3)cc2)c2c(N)ncnc21
1.75	> 200	8.67	> 1000	> 1000	2.56	156	9	CC(C)(C)c1cc(NC(=O)Nc2ccc(-c3cn(CCN4CCNCC4)c4ncnc(N)c34)cc2)no1
